We go through two molecules from patent US20230192650A1, “NOVEL ACID SECRETION INHIBITOR AND USE THEREOF” (Ildong Pharmaceutical Co., Ltd., priority 2020, published 2023).

pIC50: −log10 of the molar value. Like-named read-outs stand apart in the source and are kept apart here.

The target of series [1] is T1, proton pump (H+/K+-ATPase) (Sus scrofa, UniProt P19156).
T1 construct: Gastric vesicles isolated from pig stomach were prepared according to the document; from tissue; host or cells: pig stomach (gastric vesicles)
Kind of series: Proton pump (H+/K+-ATPase) inhibitory activity depending on pH. The series is classed as biochemical, pig. The protocol:
The proton pump (H+/K+-ATPase) inhibitory activity of the prepared compound was measured as follows. Gastric vesicles isolated from pig stomach were prepared according to the document (see Methods Mol Biol. 2016; 1377:19-27). The protein contents of the gastric vesicles were quantified with a Bicinchoninic Acid (BCA) kit (Sigma Aldrich, BCA1). To each well of a 96-well plate, 70 μl of 50 mM Tris-HEPES buffer (pH 6.5) containing 125 ng of vesicles, DMSO or a substance for each concentration (final DMSO concentration of 1%), 5 mM MgCl2, and 10 mM KCl was added and pre-incubated at 37° C. for 30 minutes. Then, 10 μl of 2 mM ATP was added to each well, followed by enzymatic reaction at 37° C. for 40 minutes. The reaction was stopped by adding 20 μl of malachite green reagent (Sigma Aldrich, MAK307) and the resulting mixture was allowed to stand at room temperature for 30 minutes. By measuring the absorbance at 620 nm using a Microplate Reader (Biotek, Synergy H4), an amount of inorganic phosphorus released from ATP degradation was measured and the enzyme activity was measured. The absorbance of the enzyme-reacted sample without adding KCl was measured, and the measurement value was subtracted from all the above measurements. Assuming that the group treated with 1% DMSO (DMSO control group) was 100% H^+/K^+-ATPase enzyme activity, and that the group without KCl (KCl control group) was 0% H^+/K^+-ATPase enzyme activity, % inhibition was calculated as in the following Equation 1: […]
In order to measure the change in proton pump (H+/K+-ATPase) inhibitory activity depending on the pH of the prepared compound, an experiment was performed in the same manner as in Test Example 1 under three conditions of pH 6.5, pH 7.0, and pH 7.5.

Series [2] addresses T1, proton pump (H+/K+-ATPase). Kind of series: Reversibility of proton pump inhibition by jump dilution method. It is filed as biochemical, pig. The following applies: 0.2 μM compound. Here is the method: In addition, in order to confirm the reversibility of the inhibition ability on the proton pump (H^+/K^+-ATPase) of the prepared compound, an experiment was performed by the jump dilution method. 6.25 μg of gastric vesicles isolated from pig stomach and 0.2 μM of each compound were pre-incubated for 120 minutes, and then the enzyme activity before dilution and the enzyme activity after 50-fold dilution were compared for each reaction time, and the reversibility was evaluated. In both Example 1 and Example 3, the inhibition ability of 50% or more was confirmed after 20 minutes of the reaction. On the other hand, when the reaction was performed for 60 minutes after the 50-fold dilution, in both Examples 1 and 3, the enzyme activity was recovered to 90% or more, and reversible results were confirmed.

Series [3] is described as follows: Intragastric distribution test in rats. It is filed as in vivo. The following applies: rat, oral 4 mg/kg, 1, 6, 12 and 24 hours. The protocol:
After oral administration of the Example compound in normal rats, the intragastric distribution by time was measured as follows. The prepared compound was dissolved in distilled water containing 0.5% methylcellulose to 0.2 mg/mL, and then orally administered at a dosage of 4 mg/kg. Rats were sacrificed at 1 hour, 6 hours, 12 hours, and 24 hours after administration. Then, blood was exsanguinated through the heart and perfused with physiological saline, the gastric tissue was enucleated, weighed, and stored at −80° C. until the point of analysis. PBS buffer was added so that the ratio of gastric tissue weight to PBS buffer was 1:4, and the compound in gastric tissue was extracted using a homogenizer. The supernatant of the extract was taken and was subjected to protein precipitation using acetonitrile, and then an amount of the Example compound was measured using LC-MS/MS.

The mark [4] stands for this setting: after 20 minutes of the reaction, read-out: inhibition ability.
The mark [5] stands for this setting: reaction time 20 min, after 50-fold dilution, read-out: % Inhibition.
Where [6] appears, read: reaction time 20 min, before dilution, read-out: % Inhibition.
The mark [7] stands for this setting: reaction time 60 min, after 50-fold dilution, read-out: % Inhibition.
Where [8] appears, read: reaction time 60 min, before dilution, read-out: % Inhibition.
Where [9] appears, read: reaction time 120 min, after 50-fold dilution, read-out: % Inhibition.
Where [10] appears, read: reaction time 120 min, before dilution, read-out: % Inhibition.

T1 sequence (P19156 2-1034 limits assumed): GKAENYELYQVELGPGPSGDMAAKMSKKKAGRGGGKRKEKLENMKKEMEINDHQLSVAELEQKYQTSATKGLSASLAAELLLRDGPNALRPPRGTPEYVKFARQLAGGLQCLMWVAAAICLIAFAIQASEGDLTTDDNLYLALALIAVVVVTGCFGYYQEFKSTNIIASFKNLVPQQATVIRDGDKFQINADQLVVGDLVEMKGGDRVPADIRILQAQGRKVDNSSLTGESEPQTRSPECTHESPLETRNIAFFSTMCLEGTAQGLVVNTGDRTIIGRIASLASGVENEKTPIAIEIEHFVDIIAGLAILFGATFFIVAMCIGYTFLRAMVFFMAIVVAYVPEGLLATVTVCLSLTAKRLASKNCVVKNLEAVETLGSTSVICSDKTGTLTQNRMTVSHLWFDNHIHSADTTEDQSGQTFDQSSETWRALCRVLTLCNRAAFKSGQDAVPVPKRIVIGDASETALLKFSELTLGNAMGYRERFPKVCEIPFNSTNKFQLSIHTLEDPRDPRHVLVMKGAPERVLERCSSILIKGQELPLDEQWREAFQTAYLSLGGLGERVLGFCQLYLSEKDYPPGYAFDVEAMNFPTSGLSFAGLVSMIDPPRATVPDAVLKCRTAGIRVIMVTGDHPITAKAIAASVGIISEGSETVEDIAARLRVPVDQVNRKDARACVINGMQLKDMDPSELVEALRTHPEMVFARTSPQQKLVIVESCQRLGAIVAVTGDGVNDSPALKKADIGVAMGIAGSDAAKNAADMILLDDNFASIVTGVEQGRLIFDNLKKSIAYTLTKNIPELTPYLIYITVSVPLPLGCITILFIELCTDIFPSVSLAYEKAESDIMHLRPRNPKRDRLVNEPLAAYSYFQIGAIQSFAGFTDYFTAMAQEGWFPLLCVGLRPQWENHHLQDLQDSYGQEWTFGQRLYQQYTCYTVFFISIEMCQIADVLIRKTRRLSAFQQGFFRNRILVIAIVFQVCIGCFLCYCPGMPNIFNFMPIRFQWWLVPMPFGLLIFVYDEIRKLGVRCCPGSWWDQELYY
T1 sequence (P18434 whole entry partner): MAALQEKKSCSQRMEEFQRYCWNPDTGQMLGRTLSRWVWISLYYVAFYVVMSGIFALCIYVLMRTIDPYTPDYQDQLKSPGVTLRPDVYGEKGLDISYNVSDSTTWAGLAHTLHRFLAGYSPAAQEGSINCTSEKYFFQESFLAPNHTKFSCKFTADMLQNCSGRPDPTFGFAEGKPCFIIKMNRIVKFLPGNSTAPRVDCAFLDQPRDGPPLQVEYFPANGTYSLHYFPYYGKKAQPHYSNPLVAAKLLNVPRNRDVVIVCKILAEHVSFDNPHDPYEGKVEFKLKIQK

On to `CNCc1cn(S(=O)(=O)c2ccc(C)nc2)c(-c2ccc(F)cc2F)c1OC` [Example 3, 1-(5-(2,4-Difluorophenyl)-4-methoxy-1-((6-methylpyridin-3-yl)sulfonyl)-1H-pyrrol-3-yl)-N-methylmethanamine], for which the pIC50 (in general, the IC50 on a negative log10 scale, so that one unit is a factor of ten) in series [1] (pH 6.5) is not below 7.00; in series [1] (pH 7.0) it was 6.00 to 7.00; in series [1] (pH 7.5), 6.00 to 7.00. The “inhibition ability depending on pH” value in series [1] (pH 6.5, pH 7.0, pH 7.5 compared) is “higher inhibition ability in a weakly acidic condition compared to a neutral condition”. In addition, the inhibition – broadly, the percentage by which the read-out fell short of the control – at 0.2 µM in series [2] (setting [4]) was not below 50%; in series [2] (setting [5]) it was 20 to 50%; in series [2] (setting [6]) it was not below 50%; in series [2] (setting [7]), less than 20%; in series [2] (setting [8]) it was not below 50%; in series [2] (setting [9]) it was less than 20%. Further, the inhibition at 0.2 µM in series [2] (setting [10]) was not below 50%.
As to `CNCc1cn(S(=O)(=O)c2ccc(OC)nc2)c(-c2ccccc2F)c1OC` [Example 1, 1-(5-(2-Fluorophenyl)-4-methoxy-1-((6-methoxypyridin-3-yl)sulfonyl)-1H-pyrrol-3-yl)-N-methylmethanamine], the pIC50 was not below 7.00 in series [1] (pH 6.5), not below 7.00 in series [1] (pH 7.0) and 6.00 to 7.00 in series [1] (pH 7.5). Also, in series [3], the “concentration in the stomach versus in vitro H+/K+ ATPase IC50” value is on record as “exceeded ICH of the in vitro H^+/K^+ ATPase inhibition assay at all time points”. Further, the inhibition at 0.2 µM in series [2] (setting [4]) was not below 50%; in series [2] (setting [5]), 20 to 50%; in series [2] (setting [6]), not below 50%; in series [2] (setting [7]) it was less than 20%; in series [2] (setting [8]), not below 50%; in series [2] (setting [9]), less than 20%. The inhibition at 0.2 µM in series [2] (setting [10]) was not below 50%.
